Measurements as given in ChEMBL document CHEMBL3526000 (Drug Metab Dispos, 2012).

Key:
Type in all cases: ADME
[1] = target: T1, UDP-glucuronosyltransferase 1A1 (Homo sapiens, UniProt P22309); assay: Drug metabolism assessed as recombinant human UGT1A1 assessed as N-glucuronidation at 100 uM incubated for 60 mins by LC-MS/MS analysis; conditions: recombinant enzyme, 1 h
T1 sequence (P22309 whole entry): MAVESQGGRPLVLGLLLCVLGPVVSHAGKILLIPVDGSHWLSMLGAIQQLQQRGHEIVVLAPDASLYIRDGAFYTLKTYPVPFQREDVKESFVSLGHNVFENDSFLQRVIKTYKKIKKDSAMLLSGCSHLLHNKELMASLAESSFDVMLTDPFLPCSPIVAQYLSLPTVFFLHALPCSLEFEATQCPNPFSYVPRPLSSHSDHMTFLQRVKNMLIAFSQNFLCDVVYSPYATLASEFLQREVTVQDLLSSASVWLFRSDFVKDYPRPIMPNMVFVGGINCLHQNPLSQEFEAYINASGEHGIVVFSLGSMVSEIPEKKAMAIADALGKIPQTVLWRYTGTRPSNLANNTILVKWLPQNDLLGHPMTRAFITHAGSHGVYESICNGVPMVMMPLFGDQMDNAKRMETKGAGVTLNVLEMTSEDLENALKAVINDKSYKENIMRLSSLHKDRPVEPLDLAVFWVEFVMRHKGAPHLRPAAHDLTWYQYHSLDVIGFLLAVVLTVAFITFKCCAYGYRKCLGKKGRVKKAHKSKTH

[2] = target: T2, UDP-glucuronosyltransferase 1A3 (Homo sapiens, UniProt P35503); assay: Drug metabolism assessed as recombinant human UGT1A3 assessed as O-glucuronidation at 100 uM incubated for 60 mins by LC-MS/MS analysis; conditions: recombinant enzyme, 1 h
T2 sequence (P35503 whole entry): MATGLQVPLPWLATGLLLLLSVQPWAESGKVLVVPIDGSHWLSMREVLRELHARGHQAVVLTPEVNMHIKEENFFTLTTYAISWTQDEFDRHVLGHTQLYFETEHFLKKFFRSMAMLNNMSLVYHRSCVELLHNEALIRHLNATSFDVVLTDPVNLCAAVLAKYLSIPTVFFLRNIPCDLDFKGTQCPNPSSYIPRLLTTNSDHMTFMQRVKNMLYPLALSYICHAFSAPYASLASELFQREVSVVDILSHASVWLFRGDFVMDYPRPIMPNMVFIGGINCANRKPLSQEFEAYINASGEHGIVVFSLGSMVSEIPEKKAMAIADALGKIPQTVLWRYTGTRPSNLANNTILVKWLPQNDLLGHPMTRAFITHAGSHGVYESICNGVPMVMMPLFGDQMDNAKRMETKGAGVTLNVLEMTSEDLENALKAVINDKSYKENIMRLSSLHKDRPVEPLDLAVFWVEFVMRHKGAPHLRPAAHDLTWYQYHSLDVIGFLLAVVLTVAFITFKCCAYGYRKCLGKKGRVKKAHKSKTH

[3] = Drug excretion in human urine; conditions: read-out: Drug excretion
[4] = target: T3, UDP-glucuronosyltransferase 2B4 (Homo sapiens, UniProt P06133); assay: Drug metabolism assessed as recombinant human UGT2B4 assessed as N-glucuronidation at 100 uM incubated for 60 mins by LC-MS/MS analysis; conditions: recombinant enzyme, 1 h
T3 sequence (P06133 whole entry): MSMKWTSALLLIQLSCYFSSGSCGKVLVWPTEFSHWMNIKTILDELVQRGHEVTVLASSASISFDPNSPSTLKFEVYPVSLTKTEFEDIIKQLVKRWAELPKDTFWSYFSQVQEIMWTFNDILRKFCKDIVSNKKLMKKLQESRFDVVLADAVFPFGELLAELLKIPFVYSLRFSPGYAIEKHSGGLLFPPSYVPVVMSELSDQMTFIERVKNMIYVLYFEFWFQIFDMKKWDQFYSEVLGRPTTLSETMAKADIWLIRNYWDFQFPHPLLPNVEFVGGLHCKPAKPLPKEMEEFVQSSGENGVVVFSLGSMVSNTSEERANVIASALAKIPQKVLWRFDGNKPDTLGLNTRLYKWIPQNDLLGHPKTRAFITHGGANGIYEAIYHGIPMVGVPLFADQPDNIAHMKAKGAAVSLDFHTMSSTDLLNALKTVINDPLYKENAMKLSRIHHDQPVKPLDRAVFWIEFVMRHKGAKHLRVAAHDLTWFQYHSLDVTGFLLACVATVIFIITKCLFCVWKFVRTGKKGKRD

[5] = target: T4, UDP-glucuronosyltransferase 1A10 (Homo sapiens, UniProt Q9HAW8); assay: Drug metabolism assessed as recombinant human UGT1A10 assessed as O-glucuronidation at 100 uM incubated for 60 mins by LC-MS/MS analysis; conditions: recombinant enzyme, 1 h
T4 sequence (Q9HAW8 whole entry): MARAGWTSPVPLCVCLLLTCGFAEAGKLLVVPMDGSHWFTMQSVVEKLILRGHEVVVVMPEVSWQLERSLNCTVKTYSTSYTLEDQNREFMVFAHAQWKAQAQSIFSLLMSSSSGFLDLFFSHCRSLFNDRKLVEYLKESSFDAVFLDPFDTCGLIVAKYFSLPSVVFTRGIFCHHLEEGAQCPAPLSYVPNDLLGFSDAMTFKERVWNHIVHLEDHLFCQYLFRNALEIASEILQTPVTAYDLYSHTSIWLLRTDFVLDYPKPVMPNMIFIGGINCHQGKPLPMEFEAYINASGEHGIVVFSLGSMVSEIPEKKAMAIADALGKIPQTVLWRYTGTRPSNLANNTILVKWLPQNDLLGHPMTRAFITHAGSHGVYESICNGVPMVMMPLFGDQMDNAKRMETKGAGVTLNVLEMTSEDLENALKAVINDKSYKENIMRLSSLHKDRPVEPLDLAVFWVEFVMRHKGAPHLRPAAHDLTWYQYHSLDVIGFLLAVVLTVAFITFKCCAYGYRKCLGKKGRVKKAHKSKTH

[6] = target: T5, UDP-glucuronosyltransferase 2B17 (Homo sapiens, UniProt O75795); assay: Drug metabolism assessed as recombinant human UGT2B17 assessed as N-glucuronidation at 100 uM incubated for 60 mins by LC-MS/MS analysis; conditions: recombinant enzyme, 1 h
T5 sequence (O75795 whole entry): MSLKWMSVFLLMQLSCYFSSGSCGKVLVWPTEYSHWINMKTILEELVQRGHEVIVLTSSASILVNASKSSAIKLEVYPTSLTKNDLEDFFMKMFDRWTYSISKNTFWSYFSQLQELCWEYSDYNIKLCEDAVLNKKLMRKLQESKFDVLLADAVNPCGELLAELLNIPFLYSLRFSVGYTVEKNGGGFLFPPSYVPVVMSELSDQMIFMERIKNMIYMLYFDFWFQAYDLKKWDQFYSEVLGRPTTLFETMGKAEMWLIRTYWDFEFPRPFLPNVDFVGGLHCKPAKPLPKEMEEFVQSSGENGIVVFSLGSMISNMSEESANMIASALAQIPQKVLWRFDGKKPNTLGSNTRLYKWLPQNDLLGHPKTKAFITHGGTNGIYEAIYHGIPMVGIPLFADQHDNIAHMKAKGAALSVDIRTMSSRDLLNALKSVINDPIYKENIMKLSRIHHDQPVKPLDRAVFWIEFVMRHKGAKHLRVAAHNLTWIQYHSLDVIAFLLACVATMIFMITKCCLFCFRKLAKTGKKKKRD

O=C(CCCN1CCC(O)(c2ccc(Cl)cc2)CC1)c1ccc(F)cc1 [HALOPERIDOL]
Drug metabolism [1]: metabolite_not_detected | Drug metabolism [2]: metabolite_not_detected | dose excreted [3]: 1% | Drug metabolism [4]: metabolite_not_detected | Drug metabolism [5]: metabolite_not_detected | Drug metabolism [6]: metabolite_not_detected
